Data as given in ChEMBL document CHEMBL1130780, “Synthesis of a cosalane analog with an extended polyanionic pharmacophore conferring enhanced potency as an anti-HIV agent” (Bioorg Med Chem Lett, 1998).

Assays:
[1] = system: CEM-SS; experiment: The compound was tested for inhibition of HIV-1 attachment to CEM-SS cells.; assay type: functional, cell-based; conditions: Homo sapiens
[2] = system: CEM-SS; experiment: Inhibitory activity against cytopathic effect of HIV-1RF in CEM-SS cells.; assay type: functional, cell-based; conditions: Homo sapiens
[3] = The compound was tested for inhibitory against fusion of HL-2/3 cells towards HeLa-CD4-LTR-beta-gal cells.; assay type: functional, cell-based, Homo sapiens
[4] = system: CEM-SS; experiment: Inhibitory activity against cytopathic effect of HIV-IIIB strain in CEM-SS cells.; assay type: functional, cell-based; conditions: Homo sapiens
[5] = system: CEM-SS; experiment: Inhibitory activity against cytopathic effect of VIHU(NSI) clinical isolate in CEM-SS cells.; assay type: functional, cell-based; conditions: Homo sapiens
[6] = The compound was tested for inhibitory activity against gp120 binding to CD4 of peripheral blood lymphocytes (PBL); assay type: functional, Homo sapiens

Row | SMILES | IC50 [1] [µM] | EC50 [2] [µM] | IC50 [3] [µM] | EC50 [4] [µM] | EC50 [5] [µM] | IC50 [6] [µM]
1 | CC(C)CCCC(C)[C@H]1CC[C@H]2[C@@H]3CCC4C[C@@H](CCC=C(c5cc(Cl)c(OCc6ccc(C(=O)O)cc6)c(C(=O)O)c5)c5cc(Cl)c(OCc6ccc(C(=O)O)cc6)c(C(=O)O)c5)CC[C@]4(C)[C@H]3CC[C@]12C (stereo partly specified) | 72 | 0.55 | 2.7 |  |  | 
2 | CC(C)CCCC(C)[C@H]1CC[C@H]2[C@@H]3CCC4C[C@@H](CCC=C(c5cc(Cl)c(O)c(C(=O)O)c5)c5cc(Cl)c(O)c(C(=O)O)c5)CC[C@]4(C)[C@H]3CC[C@]12C (stereo partly specified) |  |  |  | 3.4 | 80.2 | 7.8
